In patent US20110263647A1 (AMGEN INC., priority 2009, published 2011):
Where a name gives a salt, the structure may show the parent alone. Read-outs that look alike come from different tables or passages of the source.

Key:
[1] = In vivo pharmacokinetics, IV and oral gavage; set-up: species or system male Sprague-Dawley rats; conditions: rat; for FPO: Table 5; for Fpo (%): Table 6; for clearance / AUC(0-t) / Cmax / Vd: male, Sprague-Dawley, plasma; for Vd: read-out: Vss
In short: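 Male Sprague-Dawley rats (n=3 per route) dosed 2 mg/kg IV in DMSO (fed) or 5 mg/kg by oral gavage in 1% Tween 80/2% HPMC, pH 2.0 (fasted). Serial plasma samples to 16 h quantified by LC-MS/MS. CL, Vss, AUC, t1/2 and %F derived by noncompartmental analysis.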

[2] = molecular target: T1, CYP2D6 (Homo sapiens, UniProt P10635); experiment: CYP2D6 inhibition assay (bufuralol, pooled human liver microsomes); type: in vitro ADME; conditions: pH 7.4, probe bufuralol (5 μM), test compound 3 μM, human liver microsomes 0.25 mg/mL
T1 construct: tissue XenoTech LLC Lot 0610351; host or cells: pooled human liver microsomes
T1 sequence (P10635 whole entry): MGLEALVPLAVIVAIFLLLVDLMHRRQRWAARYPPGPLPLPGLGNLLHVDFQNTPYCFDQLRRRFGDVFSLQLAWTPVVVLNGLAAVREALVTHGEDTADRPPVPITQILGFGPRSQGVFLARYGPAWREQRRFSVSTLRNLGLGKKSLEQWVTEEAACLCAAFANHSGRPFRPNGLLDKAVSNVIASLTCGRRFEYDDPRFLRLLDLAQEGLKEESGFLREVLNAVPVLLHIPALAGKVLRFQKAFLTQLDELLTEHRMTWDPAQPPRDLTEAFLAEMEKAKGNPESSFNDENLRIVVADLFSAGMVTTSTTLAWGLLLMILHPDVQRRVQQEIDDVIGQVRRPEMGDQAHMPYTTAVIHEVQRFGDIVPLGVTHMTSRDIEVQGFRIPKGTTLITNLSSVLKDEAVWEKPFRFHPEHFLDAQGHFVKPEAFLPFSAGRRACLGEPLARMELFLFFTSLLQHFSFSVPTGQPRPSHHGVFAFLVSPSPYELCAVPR
Description: Midazolam was obtained from BD Gentest (Waltham, Mass.); 1′ hydroxy midazolam and 1-hydroxy bufuralol maleate were obtained from Ultrafine Chemicals (Manchester, UK); bufuralol HCl, ketoconazole, quinidine, potassium phosphate, and NADPH were obtained from Sigma (St. Louis, Mo.). Test compounds were prepared at 10 mM concentration in DMSO (Mallinckrodt Inc., St. Louis, Mo.). NADPH was prepared at 10 mM concentration in a pH 7.4 buffer (8.3 mg/mL 66.7 mM potassium phosphate). Midazolam was prepared at 1 mM concentration in deionized water (Amgen, Thousand Oaks, Calif.), and bufuralol was prepared at 2 mM concentration in deionized water. A stock solution of ketoconazole was prepared at 37 mM concentration in DMSO, and quinidine was prepared at 500 uM concentration in DMSO. Formic acid in acetonitrile (0.05%, ACN) was used as a quench solution (Sigma-Aldrich, St. Louis, Mo.). All solvents used for LC/MS were of chromatographic grade. Pooled human liver microsomes (Lot 0610351) were purchased from XenoTech LLC, (Lenexa, Kans.).
Pooled human liver microsomes (0.25 mg/mL) were incubated at 37° C. in a phosphate buffer (66.7 mM potassium phosphate at pH 7.4) with the selective CYP2D6 substrate bufuralol at a concentration of 5 μM in the presence and absence of test compound (3 μM). The reaction was started with the addition of NADPH (1 mM final concentration). The reaction was stopped after 10 minutes by addition of formic acid in acetonitrile. 1-Hydroxybufuralol metabolite formation was measured by an HPLC MS detection method (mobile phases for HPLC were: 0.1% AcOH in 5% MeOH, and 0.1% AcOH in 95% MeOH; the HPLC column was an Onyx Monolithic C18 CHO-7645 HPLC column from Phenomenex; Shimadzu LC-10ADVP equipped Biomek FX Liquid handling system and CTC Analytics PAL well auto-sampler; Mass spectrometer: Applied Biosystems API 3000 using Analyst 1.4.1 software). Inhibition was determined by the ratio of the amount of 1-hydroxy bufuralol metabolite formed metabolite in the presence of test compound to the amount of metabolite in the absence of test compound.

[3] = IV 2 mg/kg, read-out: IV AUClast
[4] = PO 5 mg/kg, read-out: Oral AUClast
[5] = PO 5 mg/kg, read-out: Oral Cmax

Compound | FPO ([1]; PO 5 mg/kg, IV 2 mg/kg) [%] | Fpo (%) ([1]; PO 5 mg/kg, IV 2 mg/kg) | clearance ([1]; IV 2 mg/kg) [mL/min/kg] | AUC(0-t) [1, 3] [ng·h/mL] | Cmax ([1]; IV 2 mg/kg, read-out: IV Cmax) [ng/mL] | Vd ([1]; IV 2 mg/kg) [L/kg] | AUC(0-t) [1, 4] [ng·h/mL] | Cmax [1, 5] [ng/mL] | inhibition at 10 min, 3 μM [2] [%]
N[C@H](CNc1ncc(-c2ccc3cnc(F)cc3c2)s1)CN1CCC(C(F)(F)F)CC1 [Example 25, N—((R)-2-Amino-3-(4-(trifluoromethyl)piperidin-1-yl)propyl)-5-(3-fluoroisoquinolin-6-yl)thiazol-2-amine] | 55 | 34 | 29.9 | 1100 | 396 | 9.88 | 1500 | 58 | 51
N[C@H](CNc1ncc(-c2ccc3cnc(F)cc3c2)s1)Cc1ccc(C(F)(F)F)nc1 [Example 2, (2S)—N-(5-(3-Fluoro-6-isoquinolinyl)-1,3-thiazol-2-yl)-3-(6-(trifluoromethyl)-3-pyridinyl)-1,2-propanediamine] | 40 | 57 | 12.1 | 2370 | 531 | 5.19 | 2380 | 302 | 53
N[C@H](CNc1ncc(-c2ccc3cnc(F)cc3c2)s1)[C@@H](CO)c1ccc(C(F)(F)F)cc1 [Example 33, (2S,3S)-3-Amino-4-(5-(3-fluoroisoquinolin-6-yl)thiazol-2-ylamino)-2-(4-(trifluoromethyl)phenyl)butan-1-ol] | 28 | 28 | 9.02 | 3130 | 803 | 3.41 | 2150 | 268 | 49
N[C@H](CNc1ncc(-c2ccc3cnc(F)cc3c2)s1)Cc1ccc(Cl)c(F)c1 [Example 44, (2S)-3-(4-Chloro-3-fluorophenyl)-N-1-(5-(3-fluoro-6-isoquinoliny)-1,3-thiazol-2-yl)-1-2-propanediamine] | 65 | 67 | 8.2 | 2030 | 292 | 11.4 | 3290 | 261 | 42
CC(F)(F)c1ccc([C@H](O)[C@H](N)CNc2ncc(-c3ccc4cnc(F)cc4c3)s2)cc1 [Example 38, (1S,2R)-2-Amino-1-(4-(1,1-difluoroethyl)phenyl)-3-((5-(3-fluoro-6-isoquinolinyl)-1,3-thiazol-2-yl)amino)-1-propanol trifluoroacetate] | 36 | 45 | 8.53 | 3010 | 473 | 9.48 | 2730 | 100 | 44
COCc1nc(NC[C@@H](N)Cc2ccc(C(F)(F)F)nc2)sc1-c1ccc2cnc(F)cc2c1 [Example 18, N—((S)-2-Amino-3-(6-(trifluoromethyl)pyridin-3-yl)propyl)-5-(3-fluoroisoquinolin-6-yl)-4-(methoxymethyl)thiazol-2-amine] | 40 | 48 | 17.6 | 1640 | 422 | 8.08 | 1640 | 233 | 75
N[C@H](CCc1ncc(-c2ccc3cnc(F)cc3c2)s1)[C@@H](O)c1ccc(C(F)(F)F)cc1 [Example 36, (1S,2R)-2-Amino-4-(5-(3-fluoroisoquinolin-6-yl)thiazol-2-yl)-1-(4-(trifluoromethyl)phenyl)butan-1-ol trifluoroacetate] | 64 | 66 | 14.6 | 1600 | 210 | 14.4 | 2560 | 206 | 27
CC(F)(F)c1ccc(C[C@H](N)CNc2ncc(-c3ccc4cnc(F)cc4c3)s2)cn1 [Example 7, N—((S)-2-Amino-3-(6-(1,1-difluoroethyl)pyridin-3-yl)propyl)-5-(3-fluoroisoquinolin-6-yl)thiazol-2-amine] | 42 | 47 | 22.2 | 1440 | 432 | 6.22 | 1500 | 216 | 23
N[C@H](CNc1ncc(-c2ccc3cnc(F)cc3c2)s1)Cc1ccc(C(F)(F)F)cc1 [Example 4, N—((S)-2-Amino-3-(4-(trifluoromethyl)phenyl)propyl)-5-(3-fluoroisoquinolin-6-yl)thiazol-2-amine trifluoroacetate] | 4 | 65 | 21.6 | 1530 | 959 | 2.59 | 165 | 25 | 44
CC(F)(F)c1ccc(C[C@H](N)CCc2ncc(-c3ccc4cnc(F)cc4c3)s2)cn1 [Example 50] | 103 | 85 | 45.1 | 709 | 165 | 15.3 | 1820 | 228 | 71
C[C@@H](c1ccc(C(F)(F)F)cc1)[C@H](N)CNc1ncc(-c2ccc3cnc(F)cc3c2)s1 [Example 10, N-((2S,3S)-2-Amino-3-(4-(trifluoromethyl)phenyl)butyl)-5-(3-fluoroisoquinolin-6-yl)thiazol-2-amine] | 61 | 52 | 12.5 | 2040 | 426 | 7.17 | 3100 | 316 | 19
